Legend:
[1] = tested on: EGFR Del19/T790M/C797S (H1975-clone #28); test: EGFR degradation HTRF assay, H1975-clone #28 DTC cells; assay type: cell-based; details: H1975 # 28 DTC cells; for DC50: EGFR degradation, IC50 (DC50) from curve fit, read-out: DC50(nM) H1975 # 28 DTC; for Dmax (%) H1975 # 28 DTC: maximum percentage of inhibition (degradation)
Method in brief: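 Lentiviral Del19/T790M/C797S (clone #28) or Del19/C797S (clone #23) EGFR expressed in H1975 with endogenous EGFR knocked out. Cells treated 16 h, 37 °C, 8 doses, 5-fold from 10 uM top, 0.2% DMSO; EGFR read by HTRF after lysis. Degradation % vs DMSO control; DC50, Dmax from four-parameter fit.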

[2] = molecular target: T1, EGFR L858R/T790M/C797S (BaF3-LTC cells) (Homo sapiens, UniProt P00533, C797S/L858R/T790M); test: EGFR degradation HTRF assay, BaF3-LTC cells; assay type: cell-based; details: BaF3-LTC cells; for DC50: EGFR degradation, IC50 (DC50) from curve fit, read-out: DC50(nM) BaF3-LTC; for Dmax: maximum percentage of inhibition (degradation), read-out: Dmax (%) BaF3-LTC
T1 construct: expressed in transfected cells; host or cells: BaF3
T1 sequence (P00533 25-1210 T790M/C797S/L858R): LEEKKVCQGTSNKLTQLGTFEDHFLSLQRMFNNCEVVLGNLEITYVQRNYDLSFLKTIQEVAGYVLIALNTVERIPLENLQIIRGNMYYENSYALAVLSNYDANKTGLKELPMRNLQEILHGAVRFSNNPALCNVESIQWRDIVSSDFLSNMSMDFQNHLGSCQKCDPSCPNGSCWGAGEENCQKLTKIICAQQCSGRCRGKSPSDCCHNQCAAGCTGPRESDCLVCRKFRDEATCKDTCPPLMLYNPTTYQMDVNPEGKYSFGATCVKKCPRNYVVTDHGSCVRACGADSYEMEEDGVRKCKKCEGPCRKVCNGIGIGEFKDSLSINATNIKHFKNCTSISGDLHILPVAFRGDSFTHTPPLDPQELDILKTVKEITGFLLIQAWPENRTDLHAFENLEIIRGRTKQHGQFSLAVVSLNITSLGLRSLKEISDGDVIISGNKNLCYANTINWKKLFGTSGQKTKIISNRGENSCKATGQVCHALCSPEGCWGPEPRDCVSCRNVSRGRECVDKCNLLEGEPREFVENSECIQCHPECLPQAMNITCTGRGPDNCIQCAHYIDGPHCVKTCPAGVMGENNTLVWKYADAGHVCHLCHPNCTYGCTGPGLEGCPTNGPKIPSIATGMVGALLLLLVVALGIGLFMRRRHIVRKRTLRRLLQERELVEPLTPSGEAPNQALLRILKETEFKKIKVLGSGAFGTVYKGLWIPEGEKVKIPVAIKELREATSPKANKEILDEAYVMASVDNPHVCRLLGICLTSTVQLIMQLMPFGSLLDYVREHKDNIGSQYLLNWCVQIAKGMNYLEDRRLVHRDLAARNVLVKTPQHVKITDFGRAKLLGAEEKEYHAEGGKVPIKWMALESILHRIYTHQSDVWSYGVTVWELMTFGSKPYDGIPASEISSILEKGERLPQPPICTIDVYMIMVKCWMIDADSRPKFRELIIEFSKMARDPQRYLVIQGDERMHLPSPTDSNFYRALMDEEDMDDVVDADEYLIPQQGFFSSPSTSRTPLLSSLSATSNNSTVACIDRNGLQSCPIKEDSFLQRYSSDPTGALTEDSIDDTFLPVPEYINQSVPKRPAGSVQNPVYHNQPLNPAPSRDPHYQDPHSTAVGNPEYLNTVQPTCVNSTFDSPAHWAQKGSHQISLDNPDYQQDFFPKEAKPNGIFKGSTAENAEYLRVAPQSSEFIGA
Method in brief: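 Cells treated 16 h at 37 °C, 5% CO2 in medium with 0.2% DMSO; top final concentration 10 uM, 5-fold dilution, 8 doses. Lysates read by HTRF (665/620 nm); degradation % versus DMSO high control, DC50 from four-parameter fit, Dmax as maximal degradation.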

DC50 [1]	DC50 [2]	Dmax [2]	Compound	Dmax (%) H1975 # 28 DTC [1]
0.455 nM	5.75 nM	–	CCc1ncc2c(P(C)(C)=O)c(Nc3nc(Nc4cc(C)c(N5CCC(N6CCN(CCc7cc(F)c([C@H]8CCC(=O)NC8=O)c(F)c7)CC6)CC5)cc4OC)ncc3Br)ccc2n1 [Example 748, (R)-3-(4-(2-(4-(1-(4-((5-bromo-4-((5-(dimethylphosphoryl)-2-ethylquinazolin-6-yl)amino)pyrimidin-2-yl)amino)-5-methoxy-2-methylphenyl)piperidin-4-yl)piperazin-1-yl)ethyl)-2,6-difluorophenyl)piperidine-2,6-dione]	91.78%
1.07 nM	14.2 nM	86.8%	CCc1cc(Nc2ncc(Br)c(Nc3ccc4nc(C)ccc4c3P(C)(C)=O)n2)c(OC2CC2)cc1N1CCC(N2CCN(CCCc3cc(F)cc4c3oc(=O)n4C3CCC(=O)NC3=O)CC2)CC1 (stereo not shown) [Example 607, 3-(7-(3-(4-(1-(4-((5-bromo-4-((5-(dimethylphosphoryl)-2-methylquinolin-6-yl)amino)pyrimidin-2-yl)amino)-5-cyclopropoxy-2-ethylphenyl)piperidin-4-yl)piperazin-1-yl)propyl)-5-fluoro-2-oxobenzo[d]oxazol-3(2H)-yl)piperidine-2,6-dione]	78.76%
1.31 nM	17.1 nM	92%	CCOc1cc(N2CCC(N3CCN(C[C@@H]4CCN(c5cccc6c5oc(=O)n6C5CCC(=O)NC5=O)C4)CC3)CC2)c(CC)cc1Nc1ncc(Br)c(Nc2ccc3c(=O)n(CC)ncc3c2P(C)(C)=O)n1 (stereo partly drawn) [Example 623, 3-(7-((S)-3-((4-(1-(4-((5-bromo-4-((5-(dimethylphosphoryl)-2-ethyl-1-oxo-1,2-dihydrophthalazin-6-yl)amino)pyrimidin-2-yl)amino)-5-ethoxy-2-ethylphenyl)piperidin-4-yl)piperazin-1-yl)methyl)pyrrolidin-1-yl)-2-oxobenzo[d]oxazol-3(2H)-yl)piperidine-2,6-dione]	75.76%
6.2 nM	22.7 nM	95.8%	CCOc1cc(N2CCC(N3CCN(CC4CN(c5cccc6c5oc(=O)n6C5CCC(=O)NC5=O)C4)CC3)CC2)c(CC)cc1Nc1ncc(Br)c(Nc2ccc3c(=O)n(CC)ncc3c2P(C)(C)=O)n1 (stereo not shown) [Example 645, 3-(7-(3-((4-(1-(4-((5-bromo-4-((5-(dimethylphosphoryl)-2-ethyl-1-oxo-1,2-dihydrophthalazin-6-yl)amino)pyrimidin-2-yl)amino)-5-ethoxy-2-ethylphenyl)piperidin-4-yl)piperazin-1-yl)methyl)azetidin-1-yl)-2-oxobenzo[d]oxazol-3(2H)-yl)piperidine-2,6-dione]	84.26%
1.57 nM	72.7 nM	75%	CCOc1cc(N2CCC(N3CCN(CCc4cc(F)c([C@H]5CCC(=O)NC5=O)c(F)c4)CC3)CC2)c(CC)cc1Nc1nccc(Nc2cc(F)c3nc(CC)ccc3c2P(C)(C)=O)n1 [Example 591, (R)-3-(4-(2-(4-(1-(4-((4-((5-(dimethylphosphoryl)-2-ethyl-8-fluoroquinolin-6-yl)amino)pyrimidin-2-yl)amino)-5-ethoxy-2-ethylphenyl)piperidin-4-yl)piperazin-1-yl)ethyl)-2,6-difluorophenyl)piperidine-2,6-dione]	75.79%
0.666 nM	7.79 nM	96.1%	CCOc1cc(N2CCC(N3CCN(CCc4cccc5c4C(C)(C)C(=O)N5C4CCC(=O)NC4=O)[C@H](CO)C3)CC2)c(CC)cc1Nc1ncc(Br)c(Nc2ccc3c(=O)n(CC)ncc3c2P(C)(C)=O)n1 (stereo partly drawn) [Example 641, 3-(4-(2-((S)-4-(1-(4-((5-bromo-4-((5-(dimethylphosphoryl)-2-ethyl-1-oxo-1,2-dihydrophthalazin-6-yl)amino)pyrimidin-2-yl)amino)-5-ethoxy-2-ethylphenyl)piperidin-4-yl)-2-(hydroxymethyl)piperazin-1-yl)ethyl)-3,3-dimethyl-2-oxoindolin-1-yl)piperidine-2,6-dione]	76.33%
1.14 nM	8.65 nM	91%	CCOc1cc(N2CCC(N3CCN(CCCc4cccc5c4oc(=O)n5C4CCC(=O)NC4=O)CC3)CC2)c(CC)cc1Nc1ncc(Br)c(Nc2ccc3nc(CC)ccc3c2P(C)(C)=O)n1 (stereo not shown) [Example 630, 3-(7-(3-(4-(1-(4-((5-bromo-4-((5-(dimethylphosphoryl)-2-ethylquinolin-6-yl)amino)pyrimidin-2-yl)amino)-5-ethoxy-2-ethylphenyl)piperidin-4-yl)piperazin-1-yl)propyl)-2-oxobenzo[d]oxazol-3(2H)-yl)piperidine-2,6-dione]	72.34%
3.69 nM	13.3 nM	84%	COc1cc(N2CCC3(CCN(C(=O)[C@@H]4CCN(c5cc(F)c([C@H]6CCC(=O)NC6=O)c(F)c5)C4)CC3)CC2)c(C)cc1Nc1ncc(Br)c(Nc2ccc3nccnc3c2P(C)(C)=O)n1 [Example 667, (R)-3-(4-((R)-3-(9-(4-((5-bromo-4-((5-(dimethylphosphoryl)quinoxalin-6-yl)amino)pyrimidin-2-yl)amino)-5-methoxy-2-methylphenyl)-3,9-diazaspiro[5.5]undecane-3-carbonyl)pyrrolidin-1-yl)-2,6-difluorophenyl)piperidine-2,6-dione]	77.43%
0.937 nM	2.99 nM	89.9%	CCc1ccc2c(P(C)(C)=O)c(Nc3nc(Nc4cc(CC)c(N5CCC(N6CCN(CC7CN(c8cc(F)cc9c8oc(=O)n9C8CCC(=O)NC8=O)C7)CC6)CC5)cc4OC)ncc3Br)ccc2n1 (stereo not shown) [Example 449, 3-(7-(3-((4-(1-(4-((5-bromo-4-((5-(dimethylphosphoryl)-2-ethylquinolin-6-yl)amino)pyrimidin-2-yl)amino)-2-ethyl-5-methoxyphenyl)piperidin-4-yl)piperazin-1-yl)methyl)azetidin-1-yl)-5-fluoro-2-oxobenzo[d]oxazol-3(2H)-yl)piperidine-2,6-dione]	85.59%
0.697 nM	11.8 nM	91.7%	CCOc1cc(N2CCC(N3CCN(CC4CN(c5cc(F)c([C@H]6CCC(=O)NC6=O)c(F)c5)C4)CC3)CC2)c(CC)cc1Nc1ncc(Br)c(Nc2ccc3nc(CC)ncc3c2P(C)(C)=O)n1 [Example 590, (R)-3-(4-(3-((4-(1-(4-((5-bromo-4-((5-(dimethylphosphoryl)-2-ethylquinazolin-6-yl)amino)pyrimidin-2-yl)amino)-5-ethoxy-2-ethylphenyl)piperidin-4-yl)piperazin-1-yl)methyl)azetidin-1-yl)-2,6-difluorophenyl)piperidine-2,6-dione]	87.82%
1.81 nM	3.98 nM	95.8%	CCc1ccc2c(P(C)(C)=O)c(Nc3nc(Nc4cc(CC)c(N5CCC(N6CCN(C(=O)C78CCC(Nc9cc(F)c([C@H]%10CCC(=O)NC%10=O)c(F)c9)(CC7)C8)CC6)CC5)cc4OC)ncc3Br)ccc2n1 [Example 663, (R)-3-(4-((4-(4-(1-(4-((5-bromo-4-((5-(dimethylphosphoryl)-2-ethylquinolin-6-yl)amino)pyrimidin-2-yl)amino)-2-ethyl-5-methoxyphenyl)piperidin-4-yl)piperazine-1-carbonyl)bicyclo[2.2.1]heptan-1-yl)amino)-2,6-difluorophenyl)piperidine-2,6-dione]	74.11%
0.647 nM	4.45 nM	89.3%	CCc1ccc2c(P(C)(C)=O)c(Nc3nc(Nc4cc(CC)c(N5CCC(N6CCN(CCc7cc(F)c([C@H]8CCC(=O)NC8=O)c(F)c7)CC6)CC5)cc4OC4CC4)ncc3Br)ccc2n1 [Example 547, (R)-3-(4-(2-(4-(1-(4-((5-bromo-4-((5-(dimethylphosphoryl)-2-ethylquinolin-6-yl)amino)pyrimidin-2-yl)amino)-5-cyclopropoxy-2-ethylphenyl)piperidin-4-yl)piperazin-1-yl)ethyl)-2,6-difluorophenyl)piperidine-2,6-dione]	87.96%
2.7 nM	17 nM	92.9%	CCc1ccc2c(P(C)(C)=O)c(Nc3nc(Nc4cc(CC)c(N5CCC(N6CCC(CCc7cc(F)c(C8CCC(=O)NC8=O)c(F)c7)CC6)CC5)cc4OC)ncc3Br)ccc2n1 (stereo not shown) [Example 583, 3-(4-(2-(1′-(4-((5-bromo-4-((5-(dimethylphosphoryl)-2-ethylquinolin-6-yl)amino)pyrimidin-2-yl)amino)-2-ethyl-5-methoxyphenyl)-[1,4′-bipiperidin]-4-yl)ethyl)-2,6-difluorophenyl)piperidine-2,6-dione]	76.91%
0.223 nM	0.934 nM	94%	CCc1cc(Nc2ncc(Br)c(Nc3ccc4nc(C)ccc4c3P(C)(C)=O)n2)c(OC)cc1N1CCC(N2CCN(CC3CN(c4ccc5c(c4)oc(=O)n5C4CCC(=O)NC4=O)C3)CC2)CC1 (stereo not shown) [Example 537, 3-(6-(3-((4-(1-(4-((5-bromo-4-((5-(dimethylphosphoryl)-2-methylquinolin-6-yl)amino)pyrimidin-2-yl)amino)-2-ethyl-5-methoxyphenyl)piperidin-4-yl)piperazin-1-yl)methyl)azetidin-1-yl)-2-oxobenzo[d]oxazol-3(2H)-yl)piperidine-2,6-dione]	65.01%

Source: patent publication US20230265116A1, “DEGRADATION OF (EGFR) BY CONJUGATION OF EGFR INHIBITORS WITH E3 LIGASE LIGAND AND METHODS OF USE” (BEIGENE, LTD., priority 2020, published 2023)
